Assays:
HO-1, CYP2B6, PGC-1a = experiment: Gene expression in primary human hepatocytes after 48 h+2 h; assay type: cell-based
Method: (§1) FIG. 13b: Gene Expression results from Primary Hepatocytes after 48 h+2 h of the DGA Activation vs. 0-control. […] Combined test for PGC-1a yielded P-value of some 10%. Primary human hepatocytes were purchased from Celsis In Vitro Technologies (1450 South Rolling Road Baltimore, Md. 21227, USA). Primary hepatocytes were received from three different post mortem human donators. […] This is also the case for DOO.
In this experimental model the cells in the 0-Control and in the two DGA Activation groups were normally and identically incubated before DGA Activation. Incubation the medium is changed every 24 hours. When the 48 hour+2 hour DGA Activation started, the only difference was the addition of either 1.4 μM or 14 μM of DGA to the used medium. The D-glyceric acid calcium salt was carefully mixed in to medium before the administration. Thus, it was separated from the calcium salt.

[1] = system: bacterial and/or virus infection of respiratory tract; experiment: Healing from more severe respiratory tract infection in S1, Example 1d; assay type: in vivo, human
From the text: Clear symptoms of bacterial and/or virus infection in S1 had started 7 days earlier. Original cause of the disease can also be acquired earlier, i.e. it can have been some hiding pathogen like tuberculosis bacteria that exploits tempting opportunities to attack the body when its defenses are weakened by some physical and/or mental stress (in this case stress could have been also positive stress from overly active days). […] On Friday, they were in an activity theme park with the family and next day, on Saturday they drove for 2 hours to a birthday party lasting to Sunday morning hours, and finally on Sunday visited museum that required 500 km of extra driving there and back. Next day, i.e. on Monday morning, the initiation of infectious condition was felt very clearly.
On Friday afternoon, fever had risen to 37.40 Celsius that is relatively high fever for S1 whose normal temperature is 36.60 Celsius (C) in rest during the day. Fever remained at 37.40 C until the night. During Saturday, the disease and related fever continued. On Sunday morning, temperature was slightly elevated (36.58 C) compared to the normal morning temperature (36.2-36.4 C). Otherwise the general condition was good on this Sunday morning but during the day fever again rose to 37.15 C by the afternoon and the symptoms in respiratory tract got more severe, resembling intensifying bronchitis or similar inflammatory condition.
By Sunday afternoon it started to seem evident that the immune system of S1 (even assisted by almost perfect rest for 3 days already) would not be able to provide a fast resolution to the potentially serious infectious condition. The Double and the Local Enforcements should be started as soon as possible. (Note: acute fever responses, presented in FIG. 5 and FIG. 11 for S1 have been observed from following administrations of D-glyceric acid in water and calcium salt dehydrate.)
At 12:41 S1 took 2×250 mg of D-glyceric acid calcium salt mixed into water to initiate the DGA Activation. At 0715 pm S1 took 2×180 mg of D-glyceric acid calcium salt mixed into water to keep the DGA Activation alive.

metabolism of alcohol = conditions: administered with ethanol to rats; cited from earlier work
[2] = system: primary human hepatocytes; experiment: Net ROS generation in human primary hepatocytes; assay type: cell-based; conditions: donors
Method: D-glycerate is coded as RH013001 in the graph. […] ARE -activation happens when Nrf2 detaches from cytosolic KEAP1 enzyme and moves to nucleus (SCHEME B).
as §1

CRP = experiment: Blood CRP in healthy mice, 4-day test; assay type: in vivo; conditions: 65 mg/kg/day in chow, 4 days, N=8; pairwise one-sided t-test p-value=0.04
Method: In this Example, CRP results from 3 separate preclinical tests are presented and analyzed. First 4-day CRP test was conducted with 8 healthy mice using individuals as their own controls. Second 7-day CRP test was conducted in discontinuous disease model. And third also 7-day CRP test was conducted in continuous disease model. CRP present in mouse serum samples were analyzed using mouse CRP ELISA kit (GWB-3B960E, Genway Biotech Inc.). All blood samples were collected at the same time of the day.
For evaluating possible effect of the DGA Activation in health, a 4-day test with healthy mice in Charles River Labs, Kuopio test facilities were conducted. In this test (prior initiation of the MPTP -model) the DGA was mixed into chow at the concentration of 65 mg/kg/day.

intraocular pressure = experiment: Intraocular pressure (IOP) in glaucoma, S1; assay type: in vivo, human
From the text: FIG. 12: Numerical values of the reduction in IOP in Glaucoma after DGA Administration.
The same seems to be true for the efficacy of glaucoma therapy in FIG. 12.

[3] = system: HO-1, GRHPR, PGC-1a and NRF1 pathway genes; experiment: Gene expression in peripheral leukocytes after 4.5-day administration, Example 5b; assay type: in vivo, human
Method: FIG. 13a: In this 4.5-day experiment samples of peripheral leukocytes were collected from standard blood sample of S1 and S9 in fasting condition (0 h), and 1 hour (1 h) after taking 75 grams of glucose (Glutole, Biofile Pharma, 330 ml) for glucose tolerance test. After the collection of the blood samples the leukocytes were immediately separated, and after separation immediately lysed by stop solution and stored in freezer in line with the instructions by the service provider.
Gene expression was measured from those peripheral leukocyte (=white blood cells). Additionally, basal (=0-Control) gene expression of all genes was later measured for S1. This was done using a different gene expression method for genome wide sequencing.
The doses used were 250 mg taken twice a day, in the morning and before going to bed. The last DGA dose was double in size (some 8 mg/kg), and it was taken in the same morning as the collection of blood samples. Relatively high dose and 2.5 hours to measurement was chosen to see clearer dose response in gene expression from peripheral leukocytes.
In the FIG. 13a it is shown that UTPfsAEM gene expressions are activated markedly in peripheral leukocytes after 4.5 day DGA Activation compared to 0-control. The analysis of selected genes was conducted both in fasting conditions and 1 h after glucose intake (“fed” in FIG. 13a)) and in acute dosing, i.e. only 2.5 hours from last DGA dose.

[4] = 1.4 μM, combined data, P-value approximately 1%

In the case of O=C(O)[C@H](O)CO [DGA, D-glyceric acid], the “CYP2B6 expression vs control” value (HO-1, CYP2B6, PGC-1a; [4]) was “statistically significantly different from control”, the “HO-1 expression vs control” value (HO-1, CYP2B6, PGC-1a; [4]) was “statistically significantly different from control” and the “PGC-1a expression vs control” value (HO-1, CYP2B6, PGC-1a; combined test P-value of some 10%) was “activated compared to control”. The “increase of HO-1 expression” value (HO-1, CYP2B6, PGC-1a; primary human hepatocytes in vitro) was 50-80%, the “body temperature, highest during workday” value ([1]; S1, Monday) was 36.87 C and the body temperature ([1]; S1, Monday 0630 am) was 36.38 C. For the same compound, the body temperature ([1]; S1, Monday 0900 pm) was 36.71 C, the body temperature ([1]; S1, Monday 1036 pm) was 36.68 C and the body temperature ([1]; S1, Sunday 07:10 pm, before second dose) was 36.60 C. For the same compound, the body temperature ([1]; S1, Sunday 0648 pm after 2×250 mg at 12:41, 37.15 C before) was 36.58 C, the body temperature ([1]; S1, Sunday 0652 pm) was 36.52 C and the body temperature ([1]; S1, Sunday 1015 pm) was 36.60 C. For the same compound, the body temperature ([1]; S1, Sunday 1035 pm) was 36.61 C, the metabolism of alcohol (metabolism of alcohol) was “expedited the metabolism of alcohol” and the “net ROS generation” value [2] was “declined for both JGM and CDP statistically very significantly”. The “blood CRP vs own starting level” value (CRP) was “overall decline in CRP was statistically significant”, the “IOP reduction, sufficiency of acute dose” value (intraocular pressure; acute dose 1*200 mg) was “not necessarily sufficient” and the “IOP compared to relevant control measurement” value (intraocular pressure; first measurement under the full DGA Activation) was “very significant reduction in IOP”. The “decline of blood corticosterone compared to 0-Control” value (corticosterone, IL-6; 9 mg/kg of body weight/day of DGAcs in feed, 3 weeks, N=30, p-value=0.021) was about 40%, the fat formation (corticosterone, IL-6; 3-5 week feeding study, N=144) was “fat formation is not increased” and the “average IL-6 levels compared to 0-control” value (corticosterone, IL-6; 21-28 days, not statistically significant, p-value=0.12) was “lower average IL-6 levels”. The late mortality (corticosterone, IL-6; earlier broiler chicken experiment without infection, 1-2% in other groups) was “no mortality in DGA groups”, the GRHPR gene expression ([3]; fasting and fed, after 4.5 days) was “upregulated very significantly” and the HO-1 gene expression ([3]; fasting and fed, after 4.5 days, 2.5 hours from last dose) was “upregulated very significantly”. The “genes related to PGC-1a and NRF1 pathways” value ([3]; fasting, after 4.5 days vs 0-control) was “activated statistically very significantly” and the “increase of HO-1 expression” value ([3]; peripheral leukocytes in vivo) was “more than 100%”.
